Results reported in patent US11767303B2, “Compounds and methods for inhibiting viral replication and methods of treating and preventing flaviviral infections” (priority 2020, dated 2023).

Columns and labels:
A549 cells = test: WST-8 cell proliferation cytotoxicity assay; type: cell-based, human; conditions: A549 cells; read-out: CC50 (A549)
Procedure: (§1) Cytotoxicity Assay. […] All experiments were performed in triplicates.
(§2) To address this concern, next the compound cytotoxicity CC50 was measured using a WST-8 cell proliferation assay, as described previously.

[1] = WST-8 cell proliferation cytotoxicity assay; type: cell-based, human; conditions: human; Table 4, preliminary SAR, A549 cells; read-out: CC50
Procedure: as §1, §2

ZIKV [2] = test: ZIKV inhibition in human neural progenitor cells (IFA, qRT-PCR); type: cell-based, Zika virus; conditions: HNPC
From the text: Viral Titer Reduction Assay. A viral titer reduction assay was used to determine the compounds' effect on DENV2 and ZIKV strains, as described previously. Li et al., “Existing Drugs as Broad-Spectrum and Potent Inhibitors for Zika Virus by Targeting NS2B-NS3 Interaction,” Cell Res. 27:1046-1064 (2017) and Li et al., “Erythrosin B is a Potent and Broad-Spectrum Orthosteric Inhibitor of the Flavivirus NS2B-NS3 Protease,” Antiviral Res. 150:217-225 (2018), which are hereby incorporated by reference in their entirety. Human A549 lung carcinoma cells and human primary neural progenitor cells were used, as described previously. Li et al., “Erythrosin B is a Potent and Broad-Spectrum Orthosteric Inhibitor of the Flavivirus NS2B-NS3 Protease,” Antiviral Res. 150:217-225 (2018); Brecher et al., “A Conformational Switch High-Throughput Screening Assay and Allosteric Inhibition of the Flavivirus NS2B-NS3 Protease,” PLoS Pathog. 13:e1006411 (2017), which are hereby incorporated by reference in their entirety. All experiments were performed in triplicates.
Immunofluorescence Assay. The immunofluorescence assay was performed using ZIKV-infected cells treated with DMSO or JMX0207, as described previously. […]
Quantitative qRT-PCR. Quantitative qRT-PCR was performed as described previously. […] The 2-ΔΔCT (“delta-delta Ct”) method was used to quantify samples. […]

ZIKV NS3 = test: Western blot of ZIKV NS3 and polyprotein precursor in infected A549 cells; type: cell-based, Zika virus; conditions: MOI 0.1, 48 hrs
Procedure: FIGS. 6A-6C show mechanism of action studies. […] Viral titers were quantified using plaque forming assay 48 hrs post-infection. DMSO was added to control. N=3. ***, p<0.001. […] N=3. […] Right, Band intensities of PP and NS3 normalized to the GAPDH control (N=3). […] Li et al., “Existing Drugs as Broad-Spectrum and Potent Inhibitors for Zika Virus by Targeting NS2B-NS3 Interaction,” Cell Res. 27:1046-1064 (2017), which is hereby incorporated by reference in its entirety. At 48 hrs post-infection, cells were washed, harvested, and protected by protease inhibitor cocktail prior to lysis by SDS-PAGE loading buffer. Upon incubation at 95° C. for 10 min, sample was subjected to Western blot analysis with anti-ZIKV NS3 (GTX133309, GeneTex, Inc.) and anti-GAPDH (CB1001, EMD Millipore) as primary antibodies. Error bars in all panels represent the standard deviations at each condition.
Western Blot. Western blot was performed using anti-ZIKV NS3 (GTX133309, GeneTex, Inc.) and anti-GAPDH (CB1001, EMD Millipore) antibodies, as described previously. Li et al., “Existing Drugs as Broad-Spectrum and Potent Inhibitors for Zika Virus by Targeting NS2B-NS3 Interaction,” Cell Res. 27:1046-1064 (2017) and Brecher et al., “A Conformational Switch High-Throughput Screening Assay and Allosteric Inhibition of the Flavivirus NS2B-NS3 Protease,” PLoS Pathog. […]

ZIKV [3] = test: Immunofluorescence assay of viral protein production in A549 cells; type: cell-based, Zika virus; conditions: IFA with anti-E 4G2
Procedure: Immunofluorescence Assay. The immunofluorescence assay was performed using ZIKV-infected cells treated with DMSO or JMX0207, as described previously. Li et al., “Existing Drugs as Broad-Spectrum and Potent Inhibitors for Zika Virus by Targeting NS2B-NS3 Interaction,” Cell Res. 27:1046-1064 (2017); Li et al., “Erythrosin B is a Potent and Broad-Spectrum Orthosteric Inhibitor of the Flavivirus NS2B-NS3 Protease,” Antiviral Res. 150:217-225 (2018), which are hereby incorporated in their entirety. A mouse monoclonal pan anti-E antibody 4G2 (ATCC) and a DyLight® 488 goat anti-mouse IgG (ImmunoReagents, Inc.) were used to monitor viral E protein expression, as described previously. Li et al., “Existing Drugs as Broad-Spectrum and Potent Inhibitors for Zika Virus by Targeting NS2B-NS3 Interaction,” Cell Res. 27:1046-1064 (2017); Li et al., “Erythrosin B is a Potent and Broad-Spectrum Orthosteric Inhibitor of the Flavivirus NS2B-NS3 Protease,” Antiviral Res. 150:217-225 (2018), which are hereby incorporated in their entirety.

In the case of `O=C(Nc1ccc([N+](=O)[O-])cc1Cl)c1cccc([N+](=O)[O-])c1O` [JMX0207, N-(2-Chloro-4-nitrophenyl)-2-hydroxy-3-nitrobenzamide], the CC50 (A549 cells) is reported as 31.9 µM, the CC50 [1] is reported as 33.9 µM and the “ZIKV protein expression and RNA synthesis” value (ZIKV [2]) is reported as “effectively inhibited ZIKV protein expression and RNA synthesis in HNPC in dose-dependent manner”. The “unprocessed viral polyprotein precursor (PP)” value (ZIKV NS3) was “dose-dependent increase of a protein with high molecular weight”, the “viral NS3 protein production” value (ZIKV NS3) was “dose-dependent reduction of viral NS3 protein production” and the ZIKV antigen production (ZIKV [3]) was “greatly reduced ZIKV antigen production in A549 cells in a dose-dependent manner”. For the same compound, the logP (LogP) was 2.72.
